According to patent publication US11969448B2, “Method for improving an effect of chemotherapeutic drug of gemcitabine on inhibiting pancreatic cancer and improving side effect of chemotherapeutic drug of Gemcitabine” (GENMONT BIOTECH INC., priority 2020, dated 2024):

Key:
[1] = system: Caerulein-treated LSL-KrasG12D/−-Pdx-1-Cre (KC) gene transgenic mice (pancreatic intraepithelial neoplasia lesions); experiment: Histological staining (H&E, vimentin and Ki67 immunohistochemistry) of the pancreas in the mouse model of pancreatic cancer; assay type: in vivo; details: FIG. 3
From the text: After the mice were sacrificed, the pancreas tissue was collected, fixed with formalin solution (TONYAR biotech. Inc., Taiwan), embedded in paraffin, tissue sectioned, and then subjected to H&E staining and immunohistochemical staining. […]

[2] = Side effects of Gemcitabine: body and muscle weight, serum biochemical and blood cell analysis in KC mice; assay type: in vivo
From the text: In the experiment, a 12-week-old LSL-Kras^G12D/−-Pdx-1-Cre (KC) gene transgenic mouse was used to simulate a mouse model of pancreatic cancer. The national laboratory animal center of National Applied Research Laboratories was entrusted to introduce the experimental animals from the Frederick National Laboratory for cancer research, and then conduct breeding, reproducing and embryo freezing, and then the experimental animals are bred in the animal center attached to Chung Shan Medical University in Taichung. The environment for feeding animals is controlled at a room temperature (20 to 23° C.) and in a humidity of 50 to 60%, and the light cycles of day and night are maintained for 12 hours respectively. Experimental animals are allowed to eat and drink freely. All animal experiment procedures were carried out in accordance with the protocol approved by institutional animal care and use committee (IACUC) of Chung Shan Medical University.
In order to induce acute pancreatitis in mice, Caerulein (25 μg/kg/h) were injected into the abdominal cavity of the mice by intraperitoneal (IP) injection every 7 hours 3 days before and 1 day before the experiment. The experimental mice were was divided into 4 groups. The chemotherapeutic drug of Gemcitabine was given with different concentrations (20, 50, 100, 200 mg/kg of body weight), and was administered by intraperitoneal injection for 4 consecutive weeks, once every 3 days, 10 times in total.
Two strains of the Lactobacillus paracasei GMNL-133 and the Lactobacillus reuteri GMNL-89 were used in the experiment, respectively with the ratio of 1:0.1 (1.64×10^7 CFU/0.02 kg of body weight: 1.64×10^6 CFU/0.02 kg of body weight) and the ratio of 1:1 (1.64×10^7 CFU/0.02 kg of body weight: 1.64×10^7 CFU/0.02 kg of body weight). The dosage used is based on that 12.3 times the recommended daily intake per kilogram of body weight for humans is 1 time the dose for mice. The probiotic composition was fed into the stomach of the mice by tube feeding, 5 days a week, once a day, 0.2 mL each time.
In order to study the adverse effects of the Caerulein, the chemotherapeutic drug of the Gemcitabine, and probiotic composition on serum biochemistry and blood cells, blood was collected after cardiac puncture in anesthetized mice, and the blood was immediately sent to Axel Biotechnology Inc. (Taichung) to perform blood tests and serum biochemical analysis.

[3] = system: advanced pancreatic cancer; details: first-line chemotherapy for advanced pancreatic cancer; background statement; cited from earlier work
[4] = system: BXPC-3 pancreatic cancer cells; experiment: MTT test, Experiment 2: BXPC-3 cells treated with probiotic lysates combined with Gemcitabine; assay type: cell-based; details: Gemcitabine 10 ng/mL alone; cultured 0 to 6 days; FIG. 7A
Method: 2500 BXPC-3 pancreatic cancer cells were seeded into each well of a 96-well plate, and the 96-well plate was incubated at 37° C. overnight. After the old cell culture medium was aspirated, the fresh culture medium containing the lysate of the Lactobacillus reuteri GMNL-89, the lysate of the Lactobacillus paracasei GMNL-133 (25 ug/mL of concentration), or the lysate of the Lactobacillus reuteri GMNL-89 and the Lactobacillus paracasei GMNL-133 (i.e., the probiotic composition of the present disclosure) were respectively mixed with the fresh culture medium containing the chemotherapeutic drug of Gemcitabine (10 ng/mL of concentration) to be added to the BXPC-3 pancreatic cancer cells. Then, the BXPC-3 pancreatic cancer cells were cultured for 0 to 6 days. At different time points, based on day 0, the cell viability rate was determined by the MTT test, and the cell viability rate at different time points was calculated.

[5] = Gemcitabine 20, 50, 100, 200 mg/kg IP alone, compared with untreated mice
[6] = Caerulein-treated KC mice, Gemcitabine 200 mg/kg alone

Nc1ccn([C@@H]2O[C@H](CO)[C@@H](O)C2(F)F)c(=O)n1 [Gemcitabine]
tissue staining results at the two high doses ([1]; Gemcitabine 100 mg/kg and 200 mg/kg): excellent results
expressions of the vimentin and the cell proliferation marker of Ki67 [1, 5]: also lower
pancreatic intraepithelial neoplasia lesion grades (H&E staining) [1, 5]: lower than those of the untreated mice
ALT [2, 6]: 60 U/L
AST [2, 6]: 351 U/L
Body weight [2, 6]: 21.10 ± 1.44 g
Gastrocnemius muscle weight [2, 6]: 0.13 ± 0.00 g
Platelets [2, 6]: 1222.00 K/μL
Red blood cell [2, 6]: 8.70 M/μL
White blood cell [2, 6]: 3.04 K/μL
body weight and muscle (gastrocnemius) weight ([2]; KC mice treated with Caerulein (25 μg/kg), Gemcitabine alone): lose weight and muscle (gastrocnemius) weight significantly
liver function index of AST and ALT ([2]; KC mice treated with Caerulein (25 μg/kg), only Gemcitabine): prone to elevate
5-year survival rate of patients [3]: 30%
cell viability rate (time of lowest value) [4]: reached the lowest on the sixth day
death of BXPC-3 pancreatic cancer cells (onset) [4]: caused the death of the BXPC-3 pancreatic cancer cells from the second day
